Laboratory results published in PMC5507595 (Free radical biology & medicine, 2017).

Biological target: protein disulfide isomerase (PDI) (Homo sapiens, UniProt P07237)
Experiment: absorbance titration of MNS with reduced PDI
Type: binding

Sequence of protein disulfide isomerase (PDI) (P07237 18-508): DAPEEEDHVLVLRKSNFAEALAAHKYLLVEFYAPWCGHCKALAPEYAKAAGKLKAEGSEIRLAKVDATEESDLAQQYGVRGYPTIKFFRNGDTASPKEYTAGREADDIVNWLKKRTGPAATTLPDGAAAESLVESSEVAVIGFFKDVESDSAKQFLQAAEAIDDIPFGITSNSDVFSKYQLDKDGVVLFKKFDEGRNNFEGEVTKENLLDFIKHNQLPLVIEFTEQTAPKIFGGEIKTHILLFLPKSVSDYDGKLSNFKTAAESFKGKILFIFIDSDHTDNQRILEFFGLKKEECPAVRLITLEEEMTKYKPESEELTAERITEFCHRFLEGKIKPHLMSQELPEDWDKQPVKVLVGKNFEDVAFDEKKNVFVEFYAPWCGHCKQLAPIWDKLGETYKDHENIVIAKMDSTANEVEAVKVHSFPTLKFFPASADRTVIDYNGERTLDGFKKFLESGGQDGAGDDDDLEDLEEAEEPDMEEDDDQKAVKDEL

`O=[N+]([O-])C=Cc1ccc2c(c1)OCO2` [3,4-methylenedioxy-β-nitrostyrene] was tested, and the Kd was “low micromolar”.
